In brackets after ≈: the same amount, converted by molar mass. Read-outs that look alike come from different tables or passages of the source.
Assays:
MCF-10 cells = assay: Mammalian cell toxicity (Alamar Blue); assay type: cell-based; conditions: read-out: IC50 MCF-10
Procedure: Adherent cell lines were maintained in Eagle's Minimal Essential Media (Sigma-Aldrich, St. Louis, MO, USA) with 2 mM glutamine and Earle's Balanced Salt Solution (HyClone, Logan, UT, USA) adjusted to contain 1.5 g/L sodium bicarbonate, 0.1 mM non-essential amino acids, 1 mM sodium pyruvate and 10% fetal calf serum. Fetal calf serum used in these assays was lot matched throughout. […] Toxicity assays were conducted between passages 10–20. Target compound toxicity was measured by incubating the test compound with the cells for 4 h, washing the cells and finally treating the cells with Alamar Blue. After 12–24 h, the fluorescence of the reduced dye was measured. Fluorescence intensity as a function of test compound concentration was fit to the Fermi equation, using non-linear least squares regression analysis, to estimate IC50 values.

Streptococcus pyogenes = assay: MIC, broth microdilution with Alamar Blue; assay type: cell-based; conditions: for Selectivity S. pyogenes: IC50 (MCF10)/MIC (pathogen), both values in µM
Procedure: (§1) Stock solutions of standard antibiotics and test compounds were made at 50 mM in DMSO. […] For susceptibility testing, 10 µL of glycerol stock was suspended in a 10 mL shake flask culture of chemically defined Isosensitest broth (Oxoid) supplemented with 2% w/v glucose. A sample of the shake flask culture was diluted to 1×10^6 cells/mL in media and added to 96-well test plates (100 µL per well) containing test compounds dispensed in DMSO (2 µL) using serial two-fold dilutions. After an incubation period (30°C) determined from the strain specific doubling time, a 0.03% w/v aqueous solution of resazurin (10 µL) was added and the plates were allowed to incubate; each well was then scored for dye reduction.

S. aureus DHFR = biological target: T1, S. aureus DHFR (Staphylococcus aureus, UniProt P0A017); assay: biochemical; assay type: biochemical; conditions: for IC50: S. aureus DHFR, average of at least three measurements, read-out: IC50 (nM) Sa
T1 construct: the DHFR gene was inserted into vector pET41 with a His8 tag for purification; His8; made in house; host or cells: E. coli BL21 (DE3)
T1 sequence (P0A017 whole entry): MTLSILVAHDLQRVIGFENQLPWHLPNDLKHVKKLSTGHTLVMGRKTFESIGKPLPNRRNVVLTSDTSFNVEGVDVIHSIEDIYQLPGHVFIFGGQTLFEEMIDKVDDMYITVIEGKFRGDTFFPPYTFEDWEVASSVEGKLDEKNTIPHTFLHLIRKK
Procedure: (§2) S. aureus DHFR was cloned, expressed and purified as previously described. Briefly, the DHFR gene was inserted into vector pET41 with a His8 tag for purification. The protein was expressed in E. coli BL21 (DE3) cells. […] The protein was concentrated to ∼5 mg/mL. S. pyogenes DHFR was cloned using PCR from genomic DNA and inserted in vector pET-41.
(§3) Enzyme inhibition assays were performed by monitoring the rate of NADPH oxidation by the DHFR enzyme at an absorbance of 340 nm over five minutes. Assays were performed in the presence of saturating concentrations of NADPH (100 µM) and initiated with dihydrofolate (1 mM). All assays were completed at 25°C in a buffer containing 20 mM TES pH 7.0, 50 mM KCl, 10 mM 2-mercaptoethanol, 0.5 mM EDTA and 1 mg/mL BSA. Inhibition was measured at least three times with inhibitor concentrations near the IC50 value and the average IC50 value is reported with a standard deviation.

S. pyogenes DHFR = S. pyogenes DHFR (Streptococcus pyogenes, UniProt Q9A091); assay: biochemical; assay type: biochemical; conditions: for Selectivity (h/Sp): IC50 (human)/IC50 (pathogen)
S. pyogenes DHFR, sequence (Q9A091 entry or part of it): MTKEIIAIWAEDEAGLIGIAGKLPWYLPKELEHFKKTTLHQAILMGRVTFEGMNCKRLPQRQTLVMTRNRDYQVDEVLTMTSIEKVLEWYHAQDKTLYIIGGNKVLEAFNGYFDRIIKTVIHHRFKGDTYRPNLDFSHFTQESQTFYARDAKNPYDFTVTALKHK
Procedure: as §2, §3

Human DHFR = biological target: T2, Human DHFR (Homo sapiens, UniProt P00374); assay: DHFR enzyme inhibition assay (NADPH oxidation, 340 nm); assay type: biochemical; conditions: human DHFR; average of at least three measurements; read-out: IC50 (nM) Human
T2 sequence (P00374 1-187): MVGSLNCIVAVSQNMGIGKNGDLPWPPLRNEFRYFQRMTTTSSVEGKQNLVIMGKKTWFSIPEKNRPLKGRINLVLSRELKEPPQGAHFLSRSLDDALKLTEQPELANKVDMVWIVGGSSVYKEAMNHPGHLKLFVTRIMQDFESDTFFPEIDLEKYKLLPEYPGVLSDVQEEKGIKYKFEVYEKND
Procedure: as §3

MRSA (S.aureus 13709) = assay: MIC, broth microdilution with Alamar Blue; assay type: cell-based, Staphylococcus aureus; conditions: for Selectivity MRSA: IC50 (MCF10)/MIC (pathogen), both values in µM
Procedure: as §1

HepG2 cells = assay: Mammalian cell toxicity (Alamar Blue); assay type: cell-based; conditions: Homo sapiens, cytotoxicity, 4 h incubation
Procedure: Fetal calf serum used in these assays was lot matched throughout. All cultures were maintained under a humidified 5% CO2 atmosphere at 37°C, had media refreshed twice weekly and were subcultured by trypsinization and resuspension at a ratio of 1∶5 each week. Toxicity assays were conducted between passages 10–20. Target compound toxicity was measured by incubating the test compound with the cells for 4 h, washing the cells and finally treating the cells with Alamar Blue. After 12–24 h, the fluorescence of the reduced dye was measured. Fluorescence intensity as a function of test compound concentration was fit to the Fermi equation, using non-linear least squares regression analysis, to estimate IC50 values.

[1] = Homo sapiens, MCF10, cytotoxicity, 4 h incubation
[2] = Streptococcus pyogenes, 10% FCS, read-out: MIC S. pyogenes +FCS
[3] = Streptococcus pyogenes, 10% FCS, value in parentheses, read-out: MIC S. pyogenes +FCS
[4] = Streptococcus pyogenes, value in parentheses, read-out: MIC S. pyogenes
[5] = Streptococcus pyogenes, read-out: MIC S. pyogenes
[6] = Staphylococcus aureus, MRSA, 10% fetal calf serum, read-out: MIC MRSA +FCS
[7] = Staphylococcus aureus, MRSA, 10% fetal calf serum, value in parentheses, read-out: MIC MRSA +FCS
[8] = Staphylococcus aureus, MRSA, value in parentheses, read-out: MIC MRSA
[9] = Staphylococcus aureus, MRSA, read-out: MIC MRSA

Row | SMILES | IC50 (MCF-10 cells; [1]) | Selectivity S. pyogenes (Streptococcus pyogenes) | MIC (Streptococcus pyogenes; [2]) | MIC (Streptococcus pyogenes; [3]) | MIC (Streptococcus pyogenes; [4]) | MIC (Streptococcus pyogenes; [5]) | Selectivity (h/Sa) (S. aureus DHFR; IC50 (human)/IC50 (pathogen)) | IC50 (S. aureus DHFR) | Selectivity (h/Sp) (S. pyogenes DHFR) | IC50 (Human DHFR) | Selectivity MRSA (MRSA (S.aureus 13709)) | MIC (MRSA (S.aureus 13709); [6]) | MIC (MRSA (S.aureus 13709); [7]) | MIC (MRSA (S.aureus 13709); [8]) | MIC (MRSA (S.aureus 13709); [9]) | IC50 (HepG2 cells) | MIC S. pyogenes (Streptococcus pyogenes) | MIC MRSA (MRSA (S.aureus 13709)) | also measured
1 | COc1cc(C(C)C#Cc2c(C)nc(N)nc2N)cc(N2CCOCC2)c1 (centres unmarked) [Compound 31] | 462000 nM | 58 | 2.94 µg/mL | 8 µM | 8 µM | 2.94 µg/mL | 14 | 29 ± 2 nM | 15 | 400 ± 40 nM | 116 | 2.94 µg/mL | 8 µM | 4 µM | 1.5 µg/mL | 494000 nM |  |  | 
2 | COc1cc(-c2cc(C)cc(C)c2)cc(C(C)C#Cc2c(C)nc(N)nc2N)c1 (centres unmarked) [Compound 1] |  |  |  |  | 0.25 µM | 0.1 µg/mL |  |  |  |  |  |  |  | 16 µM | 5.8 µg/mL |  | 0.097 µg/mL (≈ 0.251 µM) | 5.76 µg/mL (≈ 14.9 µM) | IC50 (MCF-10 cells; Homo sapiens, MCF10, 4 h): 47000 nM
3 | CCc1nc(N)nc(N)c1C#CCc1cc(-c2ccccc2)ccc1OC [Compound 7] | 67000 nM | 4,187 |  |  | 0.016 µM | 0.006 µg/mL | 125 | 2.4 ± 0.2 nM | 51 | 300 ± 10 nM | 67 |  |  | 1 µM | 0.18 µg/mL |  |  |  | fold improvement in potency against S. aureus DHFR (S. aureus DHFR; relative to compound 1): 18 fold
4 | COc1ccc(-c2ccccc2)cc1C(C)C#Cc1c(C)nc(N)nc1N (centres unmarked) [Compound 10] | 38000 nM | 76 | 5.7 µg/mL | 16 µM | 0.5 µM | 0.18 µg/mL |  | 75 ± 4 nM | 4 | 97 ± 10 nM | 19 | 11.4 µg/mL | 32 µM | 2 µM | 0.72 µg/mL | 94000 nM |  |  | Selectivity (h/Sa) (S. aureus DHFR): 1.3
5 | CCc1nc(N)nc(N)c1C#CCc1cc(OC)cc(-c2ccccc2)c1 [Compound 9] |  |  |  |  |  |  | 2.4 | 59 ± 2.3 nM | 3 | 140 ± 1 nM |  |  |  |  |  |  | 0.18 µg/mL (≈ 0.502 µM) | 0.18 µg/mL (≈ 0.502 µM) | IC50 (MCF-10 cells; cytotoxicity, 4 h incubation): 199000 nM; MIC S. pyogenes +FCS (Streptococcus pyogenes; 10% FCS): 0.72 µg/mL (≈ 2.01 µM); MIC (Streptococcus pyogenes; 10% FCS, value in parentheses, read-out: MIC S. pyogenes +FCS): 2 µM; MIC (Streptococcus pyogenes; value in parentheses, read-out: MIC S. pyogenes): 0.5 µM; IC50 (S. pyogenes DHFR; S. pyogenes DHFR, average of at least three measurements, read-out: IC50 (nM) Sp): 52 ± 1.7 nM; MIC MRSA +FCS (MRSA (S.aureus 13709); 10% fetal calf serum): 1.4 µg/mL (≈ 3.91 µM); MIC (MRSA (S.aureus 13709); 10% fetal calf serum, value in parentheses, read-out: MIC MRSA +FCS): 4 µM; MIC (MRSA (S.aureus 13709); value in parentheses, read-out: MIC MRSA): 0.5 µM

Reference: publication PMC3274548, “Toward New Therapeutics for Skin and Soft Tissue Infections: Propargyl-Linked Antifolates Are Potent Inhibitors of MRSA and Streptococcus pyogenes” (PLoS ONE, 2012)
